This experiment concerns B6C3F1 mice, B16 melanoma ip, median survival T/C. As to the kind of experiment: NCI In Vivo Anticancer Drug Screen. Data for tumor model B16 Melanoma (intraperitoneal) in B6C3F1 mice. The note with it: endpoint: median survival time, higher = longer survival. The method, boiled down:
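Values are T/C ratios: the measurement in treated animals divided by that in vehicle-treated controls, using survival or tumor size in mice carrying transplantable tumors.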

[1] abbreviates: dose: 12.5 mg/kg/injection, schedule: Q01DX009 (ip), vehicle: saline.
Where [2] appears, read: dose: 25.0 mg/kg/injection, schedule: Q01DX009 (ip), vehicle: saline.
Setting [3] is: dose: 50.0 mg/kg/injection, schedule: Q01DX009 (ip), vehicle: saline with Tween-80.
[4] abbreviates: dose: 50.0 mg/kg/injection, schedule: Q01DX009 (ip), vehicle: saline.
Where [5] appears, read: dose: 100.0 mg/kg/injection, schedule: Q01DX009 (ip), vehicle: saline with Tween-80.
[6] abbreviates: dose: 200.0 mg/kg/injection, schedule: Q01DX009 (ip), vehicle: saline with Tween-80.
Where [7] appears, read: dose: 400.0 mg/kg/injection, schedule: Q01DX009 (ip), vehicle: saline with Tween-80.
The mark [8] stands for this setting: dose: 3.12 mg/kg/injection, schedule: Q01DX009 (ip), vehicle: saline with Tween-80.
Where [9] appears, read: dose: 100.0 mg/kg/injection, schedule: Q01DX009 (ip), vehicle: saline.
Where [10] appears, read: dose: 200.0 mg/kg/injection, schedule: Q01DX009 (ip), vehicle: saline.
[11] abbreviates: dose: 12.5 mg/kg/injection, schedule: Q01DX009 (ip), vehicle: saline with Tween-80.
Setting [12] is: dose: 25.0 mg/kg/injection, schedule: Q01DX009 (ip), vehicle: saline with Tween-80.
Where [13] appears, read: dose: 6.25 mg/kg/injection, schedule: Q01DX009 (ip), vehicle: saline with Tween-80.
Setting [14] is: dose: 100.0 mg/kg/injection, schedule: Q01DX009 (ip), vehicle: Klucel (hydroxypropylcellulose) (HPC).

Values joined by “and” are separate entries in the source; they are usually repeats but may differ in a detail not shown here. Equal values may be shown once. Inconclusive results and toxic doses are left out.

On to `Clc1ccc2c(Cl)ncnc2c1`, for which the T/C was 96 % of control under setting [1], 100 % of control under setting [2], 93 % of control under setting [3] and 100 % of control under setting [4].

`CC(C)OC(CCCl)c1ccccc1` (stereo unspecified): the T/C is 94 % of control under setting [5], 87 % of control under setting [6] and 100 % of control under setting [7].

Consider `CCCCCCCCCCCCN1C(C)=CS/C1=C\C=C\c1scc(C)[n+]1CCCCCCCCCCCC`, for which the T/C (dose: 0.78 mg/kg/injection, schedule: Q01DX009 (ip), vehicle: saline with Tween-80) was 99 % of control and 108 % of control; the T/C (dose: 1.56 mg/kg/injection, schedule: Q01DX009 (ip), vehicle: saline with Tween-80) is 99 % of control and 105 % of control; the T/C under setting [8] is 108 % of control.

Consider `CN(C)CC1CCCC(CN(C)C)C1=O` (stereo unspecified), for which the T/C under setting [4] is 103 % of control, the T/C under setting [9] is 97 % of control and the T/C under setting [10] was 100 % of control.

Consider `C[C@H](CCC[C@H](C)OS(=O)(=O)c1ccccc1)OS(=O)(=O)c1ccccc1`, for which the T/C reads like this: under setting [11], 122 % of control and 101 % of control; under setting [12], 207 % of control and 97 % of control; under setting [7], 194 % of control.

Take `COc1cccc2c1C(=O)c1c(O)c3c(c(O)c1C2=O)C[C@@](O)(c1csc(N)n1)C[C@@H]3OC1CC(N)C(O)C(C)O1` (stereo partly specified): the T/C (dose: 25.0 mg/kg/injection, schedule: Q01DX001 (ip), vehicle: water) is 154 % of control.

As to `C/C(=N\NC(N)=O)c1cccc(/C(C)=N/NC(N)=O)n1`, the T/C reads like this: under setting [13], 93 % of control; under setting [11], 96 % of control; under setting [12], 87 % of control; under setting [3], 90 % of control.

`[O-][n+]1c(CN2CCCCC2)nc2cccc3c2c1-c1ccccc1-3`: the T/C is, setting by setting: under setting [11], 98 % of control; under setting [12], 88 % of control; under setting [3], 102 % of control; under setting [5], 91 % of control; under setting [7], 103 % of control.

On to `O=C1C=C2C(=CCOC2O)O1` (stereo unspecified), for which the T/C reads like this: (dose: 0.25 mg/kg/injection, schedule: Q01DX009 (ip), vehicle: Klucel (hydroxypropylcellulose) (HPC)) 95 % of control and 97 % of control; (dose: 0.5 mg/kg/injection, schedule: Q01DX009 (ip), vehicle: Klucel (hydroxypropylcellulose) (HPC)) 94 % of control and 98 % of control; (dose: 1.0 mg/kg/injection, schedule: Q01DX009 (ip), vehicle: Klucel (hydroxypropylcellulose) (HPC)) 99 % of control and 100 % of control; (dose: 2.0 mg/kg/injection, schedule: Q01DX009 (ip), vehicle: Klucel (hydroxypropylcellulose) (HPC)) 97 % of control; (dose: 4.0 mg/kg/injection, schedule: Q01DX009 (ip), vehicle: Klucel (hydroxypropylcellulose) (HPC)) 91 % of control.

For `COC(=O)C(N)Cc1ccc(O)c(O)c1` (stereo unspecified), the T/C is, setting by setting: under setting [1], 102 % of control; under setting [2], 88 % of control and 102 % of control; (dose: 25.0 mg/kg/injection, schedule: Q01DX012 (ip), vehicle: saline) 95 % of control; (dose: 25.0 mg/kg/injection, schedule: Q01DX024 (ip), vehicle: saline) 95 % of control; (dose: 25.0 mg/kg/injection, schedule: Q08HX120 (ip), vehicle: saline) 112 % of control; under setting [4], 90 % of control and 100 % of control. In addition, the T/C (dose: 50.0 mg/kg/injection, schedule: Q01DX012 (ip), vehicle: saline) was 94 % of control; the T/C (dose: 50.0 mg/kg/injection, schedule: Q01DX024 (ip), vehicle: saline) was 97 % of control; the T/C under setting [9] was 94 % of control and 98 % of control and 106 % of control; the T/C (dose: 100.0 mg/kg/injection, schedule: Q01DX012 (ip), vehicle: saline) was 94 % of control and 101 % of control; the T/C (dose: 100.0 mg/kg/injection, schedule: Q01DX024 (ip), vehicle: saline) is 91 % of control and 99 % of control; the T/C (dose: 100.0 mg/kg/injection, schedule: Q08HX120 (ip), vehicle: saline) was 109 % of control. In addition, the T/C is 91 % of control (dose: 100.0 mg/kg/injection, schedule: Q#A X040 (ip), vehicle: saline); 111 % of control and 103 % of control and 106 % of control under setting [10]; 96 % of control and 105 % of control (dose: 200.0 mg/kg/injection, schedule: Q01DX012 (ip), vehicle: saline); 97 % of control and 106 % of control (dose: 200.0 mg/kg/injection, schedule: Q01DX024 (ip), vehicle: saline); 110 % of control (dose: 200.0 mg/kg/injection, schedule: Q08HX120 (ip), vehicle: saline); 100 % of control (dose: 200.0 mg/kg/injection, schedule: Q#A X040 (ip), vehicle: saline). Further, the T/C is 117 % of control and 100 % of control and 105 % of control (dose: 400.0 mg/kg/injection, schedule: Q01DX009 (ip), vehicle: saline); 117 % of control and 102 % of control (dose: 400.0 mg/kg/injection, schedule: Q01DX012 (ip), vehicle: saline); 108 % of control and 104 % of control (dose: 400.0 mg/kg/injection, schedule: Q01DX024 (ip), vehicle: saline); 95 % of control (dose: 400.0 mg/kg/injection, schedule: Q#A X040 (ip), vehicle: saline); 95 % of control (dose: 600.0 mg/kg/injection, schedule: Q#A X040 (ip), vehicle: saline); 117 % of control (dose: 800.0 mg/kg/injection, schedule: Q01DX009 (ip), vehicle: saline). Further, under “dose: 800.0 mg/kg/injection, schedule: Q01DX012 (ip), vehicle: saline”, the T/C is 116 % of control.

As for `CCN(CC)CC(=O)c1ccc(O)c(O)c1`, the T/C reads like this: under setting [5], 92 % of control; under setting [6], 107 % of control; under setting [7], 117 % of control.

`NCCCCC(NC(=O)OCC1c2ccccc2-c2ccccc21)C(=O)O` (stereo unspecified): the T/C (dose: 25.0 mg/kg/injection, schedule: Q01DX009 (ip), vehicle: Klucel (hydroxypropylcellulose) (HPC)) is 92 % of control; the T/C (dose: 50.0 mg/kg/injection, schedule: Q01DX009 (ip), vehicle: Klucel (hydroxypropylcellulose) (HPC)) was 101 % of control; the T/C under setting [14] is 97 % of control and 100 % of control.

As for `COc1cc2c(c(OC)c1O)-c1ccc(SC)c(=O)cc1C(NC(C)=O)CC2` (stereo unspecified), the T/C (dose: 2.5 mg/kg/injection, schedule: Q01DX009 (ip), vehicle: water) was 119 % of control; the T/C (dose: 5.0 mg/kg/injection, schedule: Q01DX009 (ip), vehicle: water) was 119 % of control; the T/C (dose: 10.0 mg/kg/injection, schedule: Q01DX009 (ip), vehicle: water) was 116 % of control; the T/C (dose: 20.0 mg/kg/injection, schedule: Q01DX009 (ip), vehicle: water) was 119 % of control; the T/C (dose: 40.0 mg/kg/injection, schedule: Q01DX009 (ip), vehicle: water) was 122 % of control.

Take `COc1ccc(/C(C#N)=C2\OC(=O)c3ccccc32)cc1OC`: the T/C runs as follows: under setting [8], 95 % of control; under setting [13], 93 % of control; under setting [11], 107 % of control; under setting [12], 88 % of control; under setting [3], 91 % of control; under setting [6], 88 % of control.

Take `COc1ccc2c(NCCCCCCNc3c4ccccc4nc4cc(OC)ccc34)c3ccccc3nc2c1`: the T/C (dose: 39.0 micrograms/kg/injection, schedule: Q01DX009 (ip), vehicle: lactic acid) is 108 % of control and the T/C (dose: 78.0 micrograms/kg/injection, schedule: Q01DX009 (ip), vehicle: lactic acid) is 90 % of control.

For `CCCCCCCCCCCCCCCC[N+]1(C)CCN(SN2CC[N+](C)(CCCCCCCCCCCCCCCC)CC2)CC1`, the T/C reads like this: under setting [1], 96 % of control; under setting [2], 100 % of control; under setting [3], 89 % of control.

For `CC(=O)Nc1ccc(C(=O)C=O)cc1`, the T/C is, setting by setting: under setting [13], 101 % of control and 103 % of control; under setting [11], 116 % of control and 106 % of control; under setting [12], 112 % of control and 101 % of control; under setting [3], 112 % of control and 115 % of control; under setting [5], 102 % of control and 103 % of control.

As to `O=C(O)CNC(=O)CNC(=O)CNC(=O)CNC(=O)CNC(=O)OCc1ccccc1`, the T/C under setting [14] was 111 % of control; the T/C (dose: 200.0 mg/kg/injection, schedule: Q01DX009 (ip), vehicle: Klucel (hydroxypropylcellulose) (HPC)) was 96 % of control; the T/C (dose: 400.0 mg/kg/injection, schedule: Q01DX009 (ip), vehicle: Klucel (hydroxypropylcellulose) (HPC)) is 97 % of control.

The values above are taken from PubChem BioAssay AID200 (DTP/NCI, 2004).
